Our source for the Time and ED50 values is ChEMBL document CHEMBL3227996, “New bronchodilators. Synthesis and bronchodilating activity of some 3-(alkoxymethyl)-alpha-(N-substituted aminomethyl)-4-hydroxybenzyl alcohols” (1979).

SMILES strings stand for the structures.

For orientation: ED50 means the dose at which the effect has come halfway, by size or by number of responders.

What all share (type): functional
Assay [1] has as its system Cavia porcellus. Description: Inhibition of histamine-induced asthma-like syndrome in guinea pig assessed as time delay in appearance of anoxia at 5 mg/kg, po treated 30 mins before histamine challenge (reference value: 5.08 mins).
Assay [2] deals with Cavia porcellus. Description: Inhibition of histamine-induced asthma-like syndrome in guinea pig assessed as time delay in appearance of coughing at 5 mg/kg, po treated 30 mins before histamine challenge (reference value: 6.13 mins).
In assay [3] the test system is Cavia porcellus. Description: Inhibition of histamine-induced asthma-like syndrome in guinea pig assessed as time delay in appearance of anoxia at 1.25 mg/kg, po treated 30 mins before histamine challenge (reference value: 5.08 mins).
The subject of assay [4] is Cavia porcellus. Description: Inhibition of histamine-induced asthma-like syndrome in guinea pig assessed as time delay in appearance of coughing at 1.25 mg/kg, po treated 30 mins before histamine challenge (reference value: 6.13 mins).
In assay [5] the test system is Cavia porcellus. Put plainly: Inhibition of histamine-induced airway resistance in guinea pig administered intravenously 3 mins before histamine challenge. The following applies: iv.

`COCc1cc(C(O)CNC(C)C)ccc1O.Cl` (configuration not stated): the Time came to 10.38 min in the assay with Cavia porcellus [1] and 15.25 min in the assay with Cavia porcellus [2].

For the compound `CCOCc1cc(C(O)CNC(C)C)ccc1O.Cl` (configuration not stated), the Time in the assay on Cavia porcellus [1] came to 9.23 min; in the assay with Cavia porcellus [2] it was 14.03 min.

In the case of `COCCOCc1cc(C(O)CNC(C)C)ccc1O.Cl` (configuration not stated), the Time is 8.8 min with Cavia porcellus [1] and 9.7 min in the assay with Cavia porcellus [2].

On to `COCc1cc(C(O)CNC(C)(C)C)ccc1O.Cl` (configuration not stated), for which the Time is recorded as 17.17 min with Cavia porcellus [3] and 20 min with Cavia porcellus [4].

In the case of `CCOCc1cc(C(O)CNC(C)(C)C)ccc1O.Cl` (configuration not stated), the values for the Time with Cavia porcellus [3] and in the assay with Cavia porcellus [4] were 14.55 min and 14.85 min, respectively.

Consider `COCCOCc1cc(C(O)CNC(C)(C)C)ccc1O.Cl` (configuration not stated), for which the Time is 13.8 min with Cavia porcellus [1], 6.75 min in the assay with Cavia porcellus [3], 7.88 min in the assay with Cavia porcellus [4] and 15.18 min in the assay on Cavia porcellus [2].

With `CCOCCOCc1cc(C(O)CNC(C)(C)C)ccc1O.Cl` (configuration not stated), the Time in the assay on Cavia porcellus [1] came out at 8.97 min; in the assay on Cavia porcellus [3] it was 10.58 min; with Cavia porcellus [4], 11.81 min; in the assay on Cavia porcellus [2] it was 14.08 min.

Regarding `CC(C)(C)NCC(O)c1ccc(O)c(COCCO)c1.Cl` (configuration not stated), the Time in the assay with Cavia porcellus [1] is listed as 4.98 min; in the assay with Cavia porcellus [2] it was 5.97 min.

For the compound `COCc1cc(C(O)CNC(C)C)cc(COC)c1O.Cl` (configuration not stated), the Time came to 10.71 min with Cavia porcellus [3] and 11 min in the assay with Cavia porcellus [4].

As to `COCc1cc(C(O)CNC(C)(C)C)cc(COC)c1O.Cl` (configuration not stated), the Time turned out to be 7.35 min with Cavia porcellus [3] and 7.78 min in the assay with Cavia porcellus [4].

Turning to `COCc1cc(C(O)CNC(C)Cc2ccccc2)ccc1O.Cl` (configuration not stated), the Time in the assay on Cavia porcellus [1] amounted to 9.61 min; in the assay on Cavia porcellus [2], 11.65 min.

As for `CCOCc1cc(C(O)CNC(C)Cc2ccccc2)ccc1O.Cl` (configuration not stated), the Time was 12.57 min in the assay with Cavia porcellus [1] and 13.92 min with Cavia porcellus [2].

As to `COCc1cc(C(O)CNC(C)(C)Cc2ccccc2)ccc1O.Cl` (configuration not stated), the Time in the assay with Cavia porcellus [1] came to 11.35 min; with Cavia porcellus [2], 11.83 min.

For `CCOCc1cc(C(O)CNC(C)(C)Cc2ccccc2)ccc1O.Cl` (configuration not stated), the figures for the Time with Cavia porcellus [1] and with Cavia porcellus [2] were 15.98 min and 16.08 min, respectively.

For the compound `COCc1cc(C(O)CNC(C)Cc2ccc3c(c2)OCO3)ccc1O.O=C(O)C(=O)O` (configuration not stated), the Time in the assay on Cavia porcellus [3] is listed as 10.43 min; in the assay with Cavia porcellus [4], 12.05 min.

Turning to `COCc1cc(C(O)CNC(C)Cc2ccc(O)cc2)ccc1O.O=C(O)C(=O)O` (configuration not stated), the Time with Cavia porcellus [3] is 19.97 min; in the assay with Cavia porcellus [4], 20 min.

`COCc1cc(C(O)CNC(C)Cc2ccc(OC)cc2)ccc1O.O=C(O)/C=C/C(=O)O` (configuration not stated): the Time in the assay with Cavia porcellus [3] was 19.1 min; in the assay on Cavia porcellus [4] it was 20 min. In the assay on Cavia porcellus [5], this compound showed an ED50 of 2.75 µg/kg.

Consider `CC(C)(C)NCC(O)c1ccc(O)c(CO)c1` (configuration not stated) [ALBUTEROL], for which the Time in the assay on Cavia porcellus [1] was 17.22 min; with Cavia porcellus [3] it was 8.1 min; with Cavia porcellus [4] it was 9.68 min; in the assay on Cavia porcellus [2], 19.13 min.

As for `CC(C)NCC(O)c1ccc(O)c(O)c1` (configuration not stated) [ISOPROTERENOL], the Time is given as 12.71 min in the assay on Cavia porcellus [1], 6.82 min in the assay with Cavia porcellus [3], 8.02 min in the assay on Cavia porcellus [4] and 17.67 min in the assay on Cavia porcellus [2].
